# Experimental data reported in PMC3805977 (Scientific Reports, 2013).
# Test system: HIV-1
# Test: HIV-1 inhibition assay, isolates not separated
# Type: cell-based
# Conditions: across HIV-1 clades; effect augmented with streptavidin conjugation
sequence,measurement,value
SSCSVRSSCRLYYSC,"HIV-1 inhibitory activity, in words",did not show any HIV-1 inhibition
